Our source for the IC50 values is BindingDB's records for doi:10.1021/jm701164t (Irbm-Mrl, 2008).

In this experiment the target is Gag-Pol polyprotein (Human immunodeficiency virus type 1 group M subtype B (isolate HXB2), UniProt P04585). Briefly: Microtiter Plate Assay for Strand Transfer. As to conditions: pH 7.8; 37 °C. As to the method: The microtiter plate assay for stand transfer was performed with an immobilized donor substrate and a target substrate biotinylated at the 3-prime end of each DNA strand. Integrase was first assembled with immobilized LTR oligonucleotides for 30 min. Inhibitors were added after assembly and washings. For the strand transfer reaction, it was initiated with the addition of the biotinylated target substrate. Strand transfer reaction mixtures were incubated for additional 30 min, and the strand transfer products were detected by using alkaline phosphatase-conjugated avidin (Boehringer Mannheim, Indianapolis, Ind.).

The structures appear in SMILES notation.

As for `CC(c1nc(C(=O)NCc2ccc(F)cc2)c(O)c(=O)[nH]1)N(C)C` (stereo unspecified) [JMC496646 Compound 11], the IC50 (commonly the point on the concentration scale where inhibition reaches its midpoint) amounted to 100 nM.
